We go through ten compounds from ChEMBL document CHEMBL1201862, “PubChem BioAssay data set” (2004).

The IC50 is the concentration at which inhibition is half-maximal. For orientation: AC50 means the midpoint of the concentration-response curve, whichever way the signal moves.

Test [1] deals with Disintegrin and metalloproteinase domain-containing protein 17 (Homo sapiens, UniProt P78536). The experiment in a line: exosite inhibitors of ADAM17, dose response, biochemical (AID 743260).
The nature of test [2]: blockers of HIV-1 envelope-mediated cell-cell fusion – cherry-pick, dose response (AID 652057). The test is classed as functional, cell-based.
In test [3] the target is Paired box protein Pax-8 (Homo sapiens, UniProt Q06710). The test is described as follows: PAX8 transcriptional activity inhibition in RMG-I – RMG-I cells, luciferase, cherry-pick, dose response (AID 687027).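 Note: luciferase reporter driven by Pax8 target thyroperoxidase promoter measured by SteadyGlo luminescence.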 It counts as functional, cell-based.
Test [4] can be described thus: HIV-1 AD8 envelope cell-cell fusion blockers – cherry-pick, dose response (AID 652062).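 Note: luciferase signal from cell-cell fusion driven by HIV-1 clade B AD8 Env; potency is for inhibitors of fusion seen as a drop in luminescence.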 It counts as functional, cell-based.
Test [5] is described as follows: OVCAR-3 cell viability loss – plate reader, dry powder samples, PAX8 inhibitor project, dose response (AID 743044). The test is classed as functional, cell-based.
Test [6] is described as follows: general mammalian cell viability loss – activator set, cherry-pick, cytotoxicity control for miR-122 modulator project, dose response (AID 720690).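 Note: HEK293T human cells scored for general mammalian cytotoxicity.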 It counts as functional, cell-based.
A short description of test [7]: OVCAR8 cell viability loss – plate reader, dry powder samples, PAX8 project, dose response (AID 743197). The test is classed as functional, cell-based. As to conditions: OVCAR-8.
Test [8] is described as follows: potency of ADAM10 substrate cleavage blockers – biochemical, QFRET, dose response (AID 743254).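 Note: ADAM10 enzyme with the DM2 quenched FRET peptide as substrate; EDANS fluorescence gain as the protease cuts the substrate; inhibitor potency against ADAM10 proteolytic activity.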
The nature of test [9]: inhibition of ADAM10 peptide cleavage – biochemical, FRET peptide substrate, recombinant human ADAM10, selectivity assay for ADAM17 exosite inhibitor project, dose response (AID 743259).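 Note: ADAM10 enzyme cleaving a FRET peptide substrate.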
Test [10] is described as follows: intracellular Trypanosoma cruzi inhibitors in host cells – cell-based, plate reader, cherry-pick samples, set 3, dose response (AID 651818).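 Note: compounds incubated with infected cells for about four days.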 The test is classed as functional.
Test [11] can be described thus: T. cruzi growth inhibition in host cells, dose response, cell-based, plate reader, dry powder, set 2 (AID 652275). The test is classed as functional.
Test [12] can be described thus: Trypanosoma cruzi replication inhibitors in host cells – cell-based, plate reader, dry powder samples, dose response (AID 651845). The test is classed as functional.
Test [13] can be described thus: anti-trypanosomal activity in BESM host cells – imaging, CA-I/72 strain, bovine embryo skeletal muscle, dry powder, dose response (AID 651885). It counts as functional, cell-based.
Test [14] in a line: Luminescence-based cell-based high throughput dose response assay to identify activators of the DAF-12 from the parasite S. stercoralis (ssDAF-12). The test is classed as functional.
For test [15], the target named is T1, Oxysterols receptor LXR-beta (Homo sapiens, UniProt P55055).
T1 sequence (P55055 whole entry): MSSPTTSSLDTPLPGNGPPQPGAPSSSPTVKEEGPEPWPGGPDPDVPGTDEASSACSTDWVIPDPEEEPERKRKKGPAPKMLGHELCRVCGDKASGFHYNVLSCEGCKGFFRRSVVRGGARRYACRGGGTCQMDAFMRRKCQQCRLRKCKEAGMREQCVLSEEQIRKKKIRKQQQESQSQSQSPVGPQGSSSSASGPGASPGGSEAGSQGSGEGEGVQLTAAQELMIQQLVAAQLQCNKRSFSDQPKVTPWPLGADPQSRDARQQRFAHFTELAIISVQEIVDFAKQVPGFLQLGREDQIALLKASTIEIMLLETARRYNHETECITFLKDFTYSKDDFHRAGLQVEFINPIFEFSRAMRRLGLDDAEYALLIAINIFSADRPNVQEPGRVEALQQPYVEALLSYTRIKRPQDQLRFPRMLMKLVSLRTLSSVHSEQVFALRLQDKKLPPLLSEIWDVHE
The test is described as follows: LXR agonists, Gal4 luciferase reporter, dose response, counter-screen for ssDAF-12 agonist project, cell-based, luminescence, HEK293, S. stercoralis campaign (AID 720737). It counts as functional. The conditions noted are these: read-out: IC50 (the source's name). In general terms: Reporter assays use an easily measured gene product as a stand-in for the process of interest.

The target of test [16] is T1, Oxysterols receptor LXR-beta. The test is classed as functional, cell-based.
The nature of test [17]: cells.
Test [18] concerns the target Potassium channel subfamily K member 9 (Homo sapiens, UniProt Q9NPC2). The experiment in a line: KCNK9 flux blockade, concentration-response – cell-based, FluxOR thallium flux, selectivity assay for TASK1 inhibitor project, SAR follow-up (AID 652211).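 Note: potency is for inhibitors of the channel.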 It counts as functional.
Test [19] can be described thus: cells. It counts as functional, cell-based.
Test [20] addresses T2, Trace amine-associated receptor 1 (Homo sapiens, UniProt Q96RJ0).
T2 sequence (Q96RJ0 whole entry): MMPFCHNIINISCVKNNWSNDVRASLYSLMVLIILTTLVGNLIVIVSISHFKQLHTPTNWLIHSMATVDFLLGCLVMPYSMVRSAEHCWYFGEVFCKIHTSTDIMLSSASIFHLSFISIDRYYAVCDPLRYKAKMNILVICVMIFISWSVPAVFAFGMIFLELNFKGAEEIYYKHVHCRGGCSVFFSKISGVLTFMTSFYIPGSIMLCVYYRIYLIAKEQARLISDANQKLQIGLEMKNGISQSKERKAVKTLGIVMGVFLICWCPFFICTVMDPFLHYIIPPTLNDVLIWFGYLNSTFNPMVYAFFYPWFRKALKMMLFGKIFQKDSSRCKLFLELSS
The test is described as follows: Fluorescence-based cell-based high throughput dose response assay to identify agonists of the human trace amine associated receptor 1 (TAAR1). The test is classed as functional.

The target of test [21] is T2, Trace amine-associated receptor 1. The test is described as follows: Counterscreen for agonists of the human trace amine associated receptor 1 (hTAAR1): Fluorescence-based cell-based high throughput dose response assay to identify hTAAR1 agonist that also desensitize TAAR1 receptor response. The test is classed as functional. For orientation: Counterscreens check selectivity or assay interference.

Test [22] is described as follows: cells. It counts as functional, cell-based. The source holds these as a separate data set.
In test [23] the target is Potassium channel subfamily K member 3 (Homo sapiens, UniProt O14649). The test is described as follows: inhibition of human KCNK3 channel flux – CHO cells, FluxOR thallium flux, SAR follow-up (AID 652212). It counts as functional.

Molecules are shown by their SMILES. The source made the active and inactive calls.

Sequence of Disintegrin and metalloproteinase domain-containing protein 17 (P78536 whole entry, the tested form may be a part): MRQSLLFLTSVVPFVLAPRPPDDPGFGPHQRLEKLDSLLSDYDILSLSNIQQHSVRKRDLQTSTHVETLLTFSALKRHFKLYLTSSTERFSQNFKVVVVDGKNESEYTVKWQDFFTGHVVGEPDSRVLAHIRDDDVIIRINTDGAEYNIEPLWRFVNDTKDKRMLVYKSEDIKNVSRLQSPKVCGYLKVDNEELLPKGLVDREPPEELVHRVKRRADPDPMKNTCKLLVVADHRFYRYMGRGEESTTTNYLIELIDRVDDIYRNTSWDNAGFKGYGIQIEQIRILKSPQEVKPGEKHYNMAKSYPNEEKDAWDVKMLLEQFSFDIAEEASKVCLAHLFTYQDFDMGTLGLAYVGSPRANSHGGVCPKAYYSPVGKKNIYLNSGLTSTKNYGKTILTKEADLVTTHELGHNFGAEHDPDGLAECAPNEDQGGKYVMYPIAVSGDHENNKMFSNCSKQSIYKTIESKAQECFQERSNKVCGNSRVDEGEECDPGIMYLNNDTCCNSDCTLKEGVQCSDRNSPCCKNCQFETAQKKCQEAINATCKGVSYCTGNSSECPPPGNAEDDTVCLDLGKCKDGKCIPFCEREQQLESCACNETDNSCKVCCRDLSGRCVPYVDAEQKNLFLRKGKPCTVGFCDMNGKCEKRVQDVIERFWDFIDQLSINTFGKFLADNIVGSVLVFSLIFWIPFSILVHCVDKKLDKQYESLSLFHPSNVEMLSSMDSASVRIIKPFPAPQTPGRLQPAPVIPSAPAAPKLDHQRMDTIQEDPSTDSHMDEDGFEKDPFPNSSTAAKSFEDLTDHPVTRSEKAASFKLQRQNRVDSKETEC
Sequence of Potassium channel subfamily K member 3 (O14649 whole entry): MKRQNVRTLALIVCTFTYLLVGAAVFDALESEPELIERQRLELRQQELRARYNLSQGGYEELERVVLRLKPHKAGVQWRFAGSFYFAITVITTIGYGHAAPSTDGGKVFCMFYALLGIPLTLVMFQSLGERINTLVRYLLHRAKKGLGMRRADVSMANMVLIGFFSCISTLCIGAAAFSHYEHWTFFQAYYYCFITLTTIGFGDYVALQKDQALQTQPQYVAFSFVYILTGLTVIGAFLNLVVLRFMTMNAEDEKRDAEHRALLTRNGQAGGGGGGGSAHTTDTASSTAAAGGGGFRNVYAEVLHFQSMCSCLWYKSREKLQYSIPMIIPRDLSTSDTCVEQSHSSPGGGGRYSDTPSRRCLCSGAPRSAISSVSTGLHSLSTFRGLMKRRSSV
Sequence of Potassium channel subfamily K member 9 (Q9NPC2 whole entry): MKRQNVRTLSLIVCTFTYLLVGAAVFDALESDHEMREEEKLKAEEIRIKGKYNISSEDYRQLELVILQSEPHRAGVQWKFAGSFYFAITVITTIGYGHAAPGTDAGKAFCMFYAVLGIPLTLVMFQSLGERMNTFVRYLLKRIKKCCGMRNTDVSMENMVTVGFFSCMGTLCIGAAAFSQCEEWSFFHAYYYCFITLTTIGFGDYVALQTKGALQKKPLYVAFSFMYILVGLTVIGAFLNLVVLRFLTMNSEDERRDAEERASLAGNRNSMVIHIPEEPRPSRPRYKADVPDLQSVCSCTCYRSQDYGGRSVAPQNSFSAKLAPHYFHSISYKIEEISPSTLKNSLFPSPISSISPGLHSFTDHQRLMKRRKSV
Sequence of Paired box protein Pax-8 (Q06710 whole entry, the tested form may be a part): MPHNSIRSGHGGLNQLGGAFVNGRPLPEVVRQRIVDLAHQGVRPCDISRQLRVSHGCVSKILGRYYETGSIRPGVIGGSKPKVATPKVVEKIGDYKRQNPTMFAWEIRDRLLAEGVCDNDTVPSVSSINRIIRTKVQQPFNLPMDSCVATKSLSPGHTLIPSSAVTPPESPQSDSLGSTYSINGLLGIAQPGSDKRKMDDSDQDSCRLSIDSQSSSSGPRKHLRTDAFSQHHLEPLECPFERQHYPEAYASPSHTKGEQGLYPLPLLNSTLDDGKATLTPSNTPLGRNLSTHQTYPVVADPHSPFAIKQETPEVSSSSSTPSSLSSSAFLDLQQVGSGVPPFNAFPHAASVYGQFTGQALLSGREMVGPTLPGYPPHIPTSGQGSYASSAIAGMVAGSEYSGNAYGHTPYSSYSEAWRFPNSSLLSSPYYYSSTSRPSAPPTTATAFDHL

As for `C[C@H](NC(=O)c1nc[nH]c1C(=O)NC(c1ccccc1)c1ccccc1)C(=O)OCc1ccccc1`, in test [1], the IC50 is > 69.5 µM (inactive).

Turning to `COc1ccc(S(=O)(=O)Nc2ccc3c(c2)CC(=O)N([C@@H](C)CO)C[C@@H](C)[C@H](CN(C)Cc2ccc(C(F)(F)F)cc2)O3)cc1`, the AC50 in test [2] was 13.4 µM (active); in test [3] it was 6.77 µM (active); in test [4] it was 18.5 µM (active); in test [5], 24.4 µM (active); in test [6], 25.5 µM (active); in test [7], 29.5 µM (active).

In the case of `CNC(=O)[C@@H](NC(=O)[C@H](CC(C)C)[C@H](O)C(=O)NO)C(C)(C)C`, the IC50 was 0.0607 µM (active) in test [8] and 0.0358 µM (active) in test [9].

As for `C[C@@H]1CN([C@H](C)CO)C(=O)c2cccc(NC(=O)c3ccncc3)c2O[C@H]1CN(C)Cc1ccc(C(F)(F)F)cc1`, the AC50 in test [10] is 0.344 µM (active); in test [11], 0.0647 µM (active); in test [12] it was 0.0597 µM (active). Besides, the IC50 in test [13] is 0.048 µM (active).

For `CC(C)(C)NC(=O)C(c1cc2ccccc2o1)n1c(-c2ccc(-c3ccccc3)cc2)nc2ccccc21` (configuration not stated), the IC50 in test [14] is > 67.6 µM (inactive). Also, the EC50 in test [15], in test [16] and in [17] was > 67.6 µM (inactive) each time.

As to `O=C(CSc1nc2nncc-2c(O)[nH]1)Nc1nccs1`, the IC50 in test [14] was > 67.6 µM (inactive). Moreover, in [15], the EC50 was > 67.6 µM (inactive).

As for `O=C(Nc1cccc(Cl)c1)OCCOCCOC(=O)Nc1cccc(Cl)c1`, the IC50 in test [1] is > 69.4 µM (inactive); in [9], 12.9 µM (inactive).

As to `Cc1cccc(C(=O)Nc2cccc(NC(=O)c3ccccc3C(F)(F)F)c2)c1`, in test [18], the half-maximal inhibitory concentration (IC50) is 12.9 µM (active).

As to `O=C(Cc1nnc(NC(=O)Nc2ccccc2)s1)NCc1ccccc1`, the IC50 in test [19] and in [21] was > 29.9 µM (inactive) in each case. For the same compound, the EC50 in [20] and in [22] was > 29.9 µM (inactive) each time.

In the case of `O=C(Nc1cccc(NC(=O)c2ccccc2)c1)c1ccccc1`, the IC50 in test [23] was 0.024 µM (active).
